Source: patent US20140271573A1, “PHARMACO-CELLULAR THERAPEUTIC METHOD FOR THE TREATMENT OF MUSCULAR DYSTROPHIES” (PONTIFICIA UNIVERSIDAD CATÓLICA DE CHILE, priority 2013, published 2014)

Tests used:
CTGF = CTGF expression induced by TGF-β1 in C2C12 cells, northern blot; format: cell-based, mouse; settings: C2C12, 10 ng/ml TGF-β1, 50 μM andrographolide, 6 hrs
Source text: FIG. 1. […] (Vial et al., 2008).

C2C12 = assay: Fibronectin and collagen type III protein levels induced by TGF-β1 in C2C12 cells, immunoblot; format: cell-based, mouse; settings: C2C12, 10 ng/ml TGF-β1, 50 μM andrographolide, 24 hrs
mdx mice = assay: Contractile properties (isometric force) of isolated tibialis anterior muscle of mdx mice; format: in vivo, mouse; settings: isolated tibialis anterior of treated mdx mice, vs vehicle-treated mdx
Protocol: FIG. 6. Andrographolide increased skeletal muscle strength and exercise performance in mdx mice. 3 months old Wild Type (WT) and mdx mice were subjected to an exercise protocol for 3 months to augment the extent of muscle fibrosis. Along this period one group was treated with 1 mg/kg andrographolide or vehicle (i.p. injections 3 time per week, 6 animal per group). A) tibialis anterior muscles from wild-type (WT), Vehicle-treated mdx and andrographolide-treated mdx mice were isolated to evaluate isometric specific force (mN/mm2) at different stimulation frequencies (pulses per second, pps). B) Bar graph showing tetanic specific force. Values are represented as percentage of specific isometric force generated by Wild type muscle (*, P<0.05 relative to WT mice; #, P<0.05 relative to Vehicle-treated mdx mice). C) Bar graph showing twitch force (*, P<0.05 relative to WT mice; #, P<0.05 relative to Vehicle-treated mdx mice). D) Mice were subjected to an exercise challenge into the treadmill at 15 meters/min for 5 minutes and the number of stebacks was counted (*, P<0.05 relative to WT mice; #, P<0.05 relative to Vehicle-treated mdx mice).
Control or mdx (12 weeks old) male mice of C57BL/10 ScSn strain were studied. The animals were kept at room temperature with a […] night-day cycle and fed with pellets and water ad libitum. Experimental exercise was performed for running the mice in a treadmill for three times per week, 30 minutes each time at 12 m/min during 3 or 4 months (De Luca et al., 2005; De Luca et al., 2003). […]
The isometric force of isolated muscles were measured as described previously (Cabello-Verrugio et al., 2012). Briefly, optimum muscle length (Lo) and stimulation voltage were determined from micromanipulation of muscle length to produce maximum isometric twitch force. Maximum isometric tetanic force (Po) was determined from the plateau of the frequency-force relationship after successive stimulations at 1 to 200 Hz for 450 ms, with 2-minute rests between stimuli. […]

Structure (SMILES): C=C1CC[C@@H]2[C@](C)(CO)[C@H](O)CC[C@@]2(C)[C@@H]1C/C=C1/C(=O)OC[C@H]1O [andrographolide]
- induction of CTGF expression in response to TGF-β1 (CTGF): reduced
- collagen type III protein levels induced by TGF-β1 in vitro (C2C12): decreased
- fibronectin protein levels induced by TGF-β1 in vitro (C2C12): decreased
- generation of isometric force (mdx mice; frequencies between 50 and 100 Hz): significant increase
- tetanic force (mdx mice): significant increase
- twitch force (mdx mice): significant increase
